{"source": "patent US20210030870A1", "about": "“MODULATION OF P62 AND STING ACTIVITY” (priority 2018, published 2021)", "key": {"[1]": {"test_system": "STING-pathway", "assay": "Functional type I IFN assay (HEK-Blue IFN-α/β reporter) on supernatants of peptide-pretreated PBMCs", "assay_type": "cell-based, human", "conditions": "for type I IFN: PBMCs, peptide pre-activation (25 μg/ml), co-stimulation with HT-DNA"}, "[2]": {"test_system": "STING-pathway", "assay": "Functional type I IFN assay on supernatants of peptide-pretreated THP1 cells", "assay_type": "cell-based, human", "conditions": "peptide pre-activation (10 μg/ml), co-stimulation with HT-DNA"}, "[3]": {"test_system": "STING-pathway", "assay": "TNF-α ELISA on supernatants of peptide-pretreated PBMCs stimulated with STING agonists", "assay_type": "cell-based", "conditions": "human primary PBMCs, peptide pre-activation (25 μg/ml, 1 hour), co-stimulation with cGAMP or HT-DNA, supernatants after 20 hours"}, "[4]": {"test_system": "STING-pathway", "assay": "CXCL10 ELISA on supernatants of peptide-pretreated PMA-differentiated THP1 cells", "assay_type": "cell-based", "conditions": "human PMA-differentiated THP1 cells, peptide 10 μg/ml, HT-DNA treatment; listed as SEQ ID NO: 9"}, "[5]": {"test_system": "DNA-cGAS STING pathway", "assay": "Type I IFN bioassay, THP1 cells stimulated with DNA or polyIC with/without PEP302", "assay_type": "cell-based, human", "method": "Bioactive human type I IFN was measured on cell supernatants by use of HEK-Blue™ IFN-a/b cells as reporter cells according to the manufacturer instructions (InvivoGen)."}, "[6]": {"test_system": "DNA-cGAS STING pathway", "assay": "CXCL10 ELISA, THP1 cells with PEP302", "assay_type": "cell-based, human", "conditions": "DNA stimulation", "method": "Protein levels of the cytokines CXCL10 and TNF-α in supernatants, were measured using ELISA kits from R and D Systems (CXCL10; DY266) and (TNF-α; DY210) following the manufacturer's instructions."}, "[7]": {"test_system": "STING", "assay": "Western blotting of THP1 cells treated with PEP302", "assay_type": "cell-based, human", "method": "Whole-cell extracts or immunoprecipitation samples were analyzed by immunoblotting. Samples were diluted in XT sample buffer and XT reducing agent and ran on a SDS—PAGE (Criterion™ TGX™). Trans-Blot Turbo™ Transfer System was used for the transfer of proteins to PVDF membranes (all reagents Bio-Rad). The membrane was blocked in 5% Difco™ skim milk (BD) or 5% bovine serum albumin (BSA) (Sigma). For detection of STING dimerization, samples were prepared for electrophoresis using non-reducing RIPA lysis buffer with 0.2% SDS and complete mini inhibitor (Sigma). The antibodies used for immunoblotting were as follows: rabbit anti-pSTING (S366) (Cell Signaling Technology, #85735), rabbit anti-pTBK1 (Ser172) (Cell Signaling, D52C2/#5483), rabbit anti-phospho p62 (Cell Signalling), Guinea pig anti-p62 (Progen), rabbit anti-STING (Cell Signalling) and mouse anti-b-actin (Abcam, AC-15/ab49900)."}, "[8]": {"conditions": "THP1 cells treated with peptide"}, "[9]": {"conditions": "THP1 cells, after DNA and cGAMP stimulation, Western blotting"}}, "note": "“Also recorded” adds a separate entry of the source."}
{"sequence": "DLCSVCEGKGLHRGHTKLAFGRKKRRQRRRPQ (listed as Homo sapiens) [PEP307, ZZ domain fragment peptide of human P62 C-terminally conjugated to TAT]", "values": [{"measurement": "type I IFN", "setting": "[1]", "value": "significant suppression"}, {"measurement": "type I IFN", "setting": "[1]; listed as SEQ ID NO: 10", "value": "capable of reducing"}, {"measurement": "type I IFN", "setting": "[2]", "value": "significant suppression"}, {"measurement": "type I IFN", "setting": "[2]; listed as SEQ ID NO: 10", "value": "capable of reducing"}]}
{"sequence": "EELTMAMSYVKDDIFRIYIKGRKKRRQRRRPQ (listed as Homo sapiens) [PEP305, PB1 domain fragment peptide of human P62 C-terminally conjugated to TAT]", "values": [{"measurement": "cytokine response of TNF-alpha", "setting": "[3]", "value": "enhance"}, {"measurement": "cytokine response of TNF-alpha", "setting": "[3]; listed as SEQ ID NO: 9", "value": "very efficient in increasing"}, {"measurement": "type I Interferon", "setting": "[1]; human primary PBMCs, peptide pre-activation (25 μg/ml, 1 hour), co-stimulation with cGAMP or HT-DNA", "value": "suppress"}, {"measurement": "CXCL10 expression", "setting": "[4]", "value": "very efficient in increasing; also recorded: increase"}]}
{"sequence": "PGPCERLLSRVAALFPALRP GRKKRRQRRRPQ (PGPCERLLSRVAALFPALRPGRKKRRQRRRPQ; listed as Homo sapiens) [PEP302, PB1 domain fragment peptide of human P62]", "values": [{"measurement": "pathway specificity of type I IFN inhibition (DNA versus polyIC stimulation)", "setting": "[5]; THP1 cells stimulated with DNA or polyIC with/without peptide", "value": "may specifically target the DNA-cGAS STING pathway and not the polylC pathway"}, {"measurement": "DNA-activated IFN (type I IFN bioassay)", "setting": "[5]; THP1 cells, DNA stimulation", "value": "reduces"}, {"measurement": "DNA-STING-induced CXCL10 production", "setting": "[6]", "value": "reduces; also recorded: can inhibit"}, {"measurement": "STING dimerization", "setting": "[7]; [8]", "value": "may induce"}, {"measurement": "autophagy (LC3 turnover)", "setting": "[7]; [8]", "value": "may induce; also recorded: seems to constitutively induce"}, {"measurement": "p62 dimerization", "setting": "[7]; [8]", "value": "may induce; also recorded: induce p62 dimerization"}, {"measurement": "ubiquitination of STING", "setting": "[7]; THP1 cells treated with peptide alone", "value": "may also induce; also recorded: potentially ubiquitination of STING"}, {"measurement": "phosphorylation of TBK1", "setting": "[7]; [9]", "value": "significantly reduced; also recorded: inhibit/reduce"}, {"measurement": "phosphorylation of p62", "setting": "[7]; [9]", "value": "significantly reduced; also recorded: inhibit/reduce"}, {"measurement": "phosphorylation of STING", "setting": "[7]; THP1 cells, after DNA stimulation, Western blotting", "value": "can inhibit; also recorded: may inhibit"}, {"measurement": "phosphorylation of STING (phospho-STING)", "setting": "[7]; THP1 cells, after cGAMP stimulation, Western blotting", "value": "significantly reduce; also recorded: may inhibit"}]}
{"sequence": "SLTVKAYLLGKEDAAREIRRGRKKRRQRRRPQ (listed as Homo sapiens) [PEP300, N-terminal fragment peptide of human P62 C-terminally conjugated to TAT]", "values": [{"measurement": "type I IFN", "setting": "[1]", "value": "significant suppression"}, {"measurement": "type I IFN", "setting": "[1]; listed as SEQ ID NO: 8", "value": "capable of reducing"}, {"measurement": "type I IFN", "setting": "[2]", "value": "significant suppression"}, {"measurement": "type I IFN", "setting": "[2]; listed as SEQ ID NO: 8", "value": "capable of reducing"}]}
